{
  "source": "patent US8623845B1",
  "about": "“Pharmaceutical composition for preventing or treating Diabetes mellitus comprising bisphophonates” (Metacine, Inc., priority 2012, dated 2014)",
  "key": {"PTP-1B": {"target": "T1, PTP-1B (Homo sapiens, UniProt P18031)", "T1 sequence (P18031 1-435)": "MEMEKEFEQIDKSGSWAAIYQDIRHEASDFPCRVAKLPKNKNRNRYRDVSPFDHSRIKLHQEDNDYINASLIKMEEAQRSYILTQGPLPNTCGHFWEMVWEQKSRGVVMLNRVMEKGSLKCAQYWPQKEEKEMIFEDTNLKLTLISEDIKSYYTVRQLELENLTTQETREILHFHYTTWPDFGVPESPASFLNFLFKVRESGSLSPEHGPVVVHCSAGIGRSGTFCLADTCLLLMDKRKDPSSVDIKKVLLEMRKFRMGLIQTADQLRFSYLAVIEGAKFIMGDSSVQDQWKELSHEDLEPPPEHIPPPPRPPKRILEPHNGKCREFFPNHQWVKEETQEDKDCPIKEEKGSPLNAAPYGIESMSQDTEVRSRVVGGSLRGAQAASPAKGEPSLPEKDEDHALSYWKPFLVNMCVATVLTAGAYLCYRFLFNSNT", "test": "Inhibition of binding PTP-1B with IR (protein chip, anti-IR phosphorylation antibody)", "type": "biochemical", "conditions": "mean±SD, n=6", "method": "IR molecules stood for 1 hour at 30° C. to induce phosphorylation, and each 1 μl of IR molecules were fixed with protein chips(PeproTech) at 4° C. The protein chips were washed with washing buffer for 10 minutes, and blocked with blocking buffer(3% BSA in PBS, pH 7.4) at room temperature for 1 hour followed by washing with washing buffer. Each sample was as follow:\n0. Blank control(C), 0.5 μl PEG (10%, polyethylene glycol)+0.5 μl PTP-1B buffer;\n1. Negative control(N), 0.5 μl PEG (10%)+0.5 μl PTP-1B;\n2. Positive control(P), 0.5 μl Na3VO4(sodium orthovanadate; 1 mM, pH 10)+0.5 μl PTP-1B;\n3. Experimental group(ZA), 0.5 μl ZA (5 μM)+0.5 μl PTP-1B\nThe protein chips were washed for 10 minutes, and each was treated with 1 μl of anti-IR phosphorylation antibodies diluted by dilution buffer in 1/100 followed by incubating for 1 hour at 30° C. And then, it was washed with washing buffer for 10 minutes, and each was treated with […] of Cy5-fluorescent coupled rabbit anti-IgG antibodies diluted by dilution buffer in 1/100 followed by incubating for 1 hour at 30° C. They were washed for 10 minutes, scanned by microarray scanner system to analyze to GraphPad Prism 4 software.\nThe results are presented as the mean±SD(%). Statistical analysis was performed using Student's t-test, and P<0.05 was considered as a significance (n=6)."}, "Rat pancreatic islets": {"system": "Rat pancreatic islets", "test": "Insulin secretion level by hyperglycemia stimulation in primary pancreatic islets", "type": "cell-based, Sprague Dawley rats", "conditions": "5 μM ZA for 3 days, mean±SD of five experiments", "experimental": "Rat pancreatic islets were isolated from Sprague Dawley rats (200˜230 g) by digesting the pancreatic duct with collagenase P (1 mg/ml in PBS). After digestion, the islets were separated with Histopaque-1077 (Sigma, St. Louis, Mo.). The primary islets were cultured in RPMI 1640 medium containing 10% fetal bovine serum (FBS), penicillin (100 IU/ml) and streptomycin (100 g/ml). Equal number of primary islet clusters was transferred into micro-centrifuge tube with 1 ml of 10% RPMI 1640, and incubated under normal (5.5 mM glucose) and glucotoxic conditions with or without Zoledronic acid (5 μM) for 3 days. Exposure to glucotoxic conditions was followed by treating with 0.6 mM free fatty acid (FFA; palmitate/oleate, 2:1) and 25 mM glucose in RPMI 1640 with 10% FBS. FFA were complexed with 5% fatty acid-free BSA in PBS. Cultured islets were washed in Krebs-Ringer-bicarbonate (KRB) buffer (130 mM NaCl, 3.6 mM KCl, 1.5 mM CaCl2, 0.5 mM MgSO4, 0.5 mM KH2PO4. 2.0 mM NaHCO2 and 10 mM HEPES) and incubated in KRB buffer for 1 hour followed by further incubation in KRB buffer containing 5.5 mM glucose for 1 hour. Samples were centrifuged at 12,000 g for 1 min and the supernatant was collected for measurement. […] Insulin concentrations from two supernatants removed at two different conditions were measured with a RIA kit (Linco) The results are presented as the mean±SD of five independent experiments. […]"}},
  "data": [
    {"smiles": "[Na+].[Na+].[Na+].[O]=[V]([O-])([O-])[O-]", "note": "[Na3VO4, sodium orthovanadate]", "values": [
      {"measurement": "inhibition effect of binding PTP-1B with IR", "setting": "PTP-1B; positive control, Na3VO4 1 mM, pH 10", "value": "87±4", "unit": "%"}
    ]},
    {"smiles": "O=P(O)(O)C(O)(Cn1ccnc1)P(=O)(O)O", "note": "[ZA, [1-hydroxy-2-(1H-imidazol-1-yl)ethane-1,1-diyl]bis(phosphonic acid)]", "values": [
      {"measurement": "insulin secretion level", "setting": "Rat pancreatic islets; diabetes mellitus condition (25 mM glucose, glucotoxic), untreated reduced to 52±19% compared to normal condition", "value": "72±34", "unit": "%"},
      {"measurement": "insulin secretion level", "setting": "Rat pancreatic islets; normal condition (5.5 mM glucose), untreated = 100±17%", "value": "82±43", "unit": "%"},
      {"measurement": "inhibition at 5 µM", "setting": "PTP-1B; ZA 5 μM, read-out: inhibition effect of binding PTP-1B with IR", "value": "89 ± 21", "unit": "%"}
    ]}
  ]
}
